From ChEMBL document CHEMBL3769322, “Synthesis and evaluation of anticancer and antiobesity activity of 1-ethoxy carbonyl-3,5-bis (3'-indolyl methylene)-4-pyperidone analogs” (Bioorg Med Chem Lett, 2016)

Experiments:
[1] = Cytotoxicity against human SKOV3 cells by MTT assay; type: functional, cell-based; conditions: SK-OV-3
[2] = Inhibition of porcine pancreatic lipase type 2 using p-nitrophenyl laurate as substrate after 2 hrs by UV spectrophotometric analysis; set-up: species or system Sus scrofa
[3] = system: MCF7; assay: Cytotoxicity against human MCF7 cells by MTT assay; type: functional, cell-based
[4] = system: A549; assay: Cytotoxicity against human A549 cells by MTT assay; type: functional, cell-based
[5] = system: HepG2; assay: Cytotoxicity activity against human HepG2 cells by MTT assay; type: functional, cell-based
[6] = system: HeLa; assay: Cytotoxicity against human HeLa cells by MTT assay; type: functional, cell-based

SMILES | IC50 [1] | IC50 [2] | IC50 [3] | IC50 [4] | IC50 [5] | IC50 [6] | IC50 ([2]; read-out: IC50)
CCOC(=O)N1C/C(=C\c2cn(Cc3ccccc3)c3ccccc23)C(=O)/C(=C/c2cn(Cc3ccccc3)c3ccccc23)C1 | > 100 µM | Not Active | > 100 µM | > 100 µM | > 100 µM | > 100 µM | 
CCOC(=O)N1C/C(=C\c2cn(Cc3ccccc3F)c3ccccc23)C(=O)/C(=C/c2cn(Cc3ccccc3F)c3ccccc23)C1 | 85.5 µM |  | > 100 µM | 29.1 µM | > 100 µM | > 100 µM | 56.4 µM
CCOC(=O)N1C/C(=C\c2cn(Cc3ccccc3Cl)c3ccccc23)C(=O)/C(=C/c2cn(Cc3ccccc3Cl)c3ccccc23)C1 | 50.6 µM | Not Active | > 100 µM | 2.75 µM | > 100 µM | > 100 µM | 
CCOC(=O)N1C/C(=C\c2cn(Cc3ccc([N+](=O)[O-])cc3)c3ccccc23)C(=O)/C(=C/c2cn(Cc3ccc([N+](=O)[O-])cc3)c3ccccc23)C1 | > 100 µM |  | > 100 µM | 16 µM | > 100 µM | > 100 µM | 30.9 µM
CCOC(=O)N1C/C(=C\c2cn(Cc3ccc(F)cc3)c3ccccc23)C(=O)/C(=C/c2cn(Cc3ccc(F)cc3)c3ccccc23)C1 | > 100 µM | Not Active | > 100 µM | > 100 µM | > 100 µM | 48 µM | 
CCOC(=O)N1C/C(=C\c2cn(Cc3ccccc3C#N)c3ccccc23)C(=O)/C(=C/c2cn(Cc3ccccc3C#N)c3ccccc23)C1 | > 100 µM | Not Active | > 100 µM | > 100 µM | > 100 µM | > 100 µM | 
CCOC(=O)N1C/C(=C\c2cn(Cc3ccc(Cl)cc3Cl)c3ccccc23)C(=O)/C(=C/c2cn(Cc3ccc(Cl)cc3Cl)c3ccccc23)C1 | > 100 µM |  | > 100 µM | > 100 µM | > 100 µM | > 100 µM | 14.9 µM
CCOC(=O)N1C/C(=C\c2cn(Cc3ccc(Br)cc3)c3ccccc23)C(=O)/C(=C/c2cn(Cc3ccc(Br)cc3)c3ccccc23)C1 | > 100 µM | Not Active | > 100 µM | > 100 µM | > 100 µM | > 100 µM | 
CCOC(=O)N1C/C(=C\c2cn(Cc3ccc(-c4ccccc4C#N)cc3)c3ccccc23)C(=O)/C(=C/c2cn(Cc3ccc(-c4ccccc4C#N)cc3)c3ccccc23)C1 | > 100 µM | Not Active | > 100 µM | > 100 µM | > 100 µM | > 100 µM | 
CCOC(=O)N1C/C(=C\c2cn(C)c3ccccc23)C(=O)/C(=C/c2cn(C)c3ccccc23)C1 | 55.1 µM | Not Active | > 100 µM | 66.7 µM | > 100 µM | > 100 µM | 
CCOC(=O)N1C/C(=C\c2cn(Cc3cccc(Cl)c3)c3ccccc23)C(=O)/C(=C/c2cn(Cc3cccc(Cl)c3)c3ccccc23)C1 | 18 µM | Not Active | > 100 µM | 4.21 µM | 7.33 µM | > 100 µM | 
COc1cc(/C=C/C(=O)CC(=O)/C=C/c2ccc(O)c(OC)c2)ccc1O [CURCUMIN] | 49.9 µM |  | 46.2 µM | 23.5 µM | 4.43 µM | 51.9 µM | 
COc1cccc2c1C(=O)c1c(O)c3c(c(O)c1C2=O)C[C@@](O)(C(=O)CO)C[C@@H]3O[C@H]1C[C@H](N)[C@H](O)[C@H](C)O1 [DOXORUBICIN] | 16.4 µM |  |  | 0.14 µM | 10.2 µM | 9.03 µM | 
CCCCCCCCCCC[C@@H](C[C@@H]1OC(=O)[C@H]1CCCCCC)OC(=O)[C@H](CC(C)C)NC=O [ORLISTAT] |  |  |  |  |  |  | 62.2 µM
